Laboratory results reported in paper PMC10313671, “Accelerating the prediction and discovery of peptide hydrogels with human-in-the-loop” (Nature Communications, 2023).
Where a SMILES comes first, the peptide text is derived from it.

Tests used:
[1] = Transmission electron microscope (negative staining) of peptide assemblies; conditions: for Morphology: TEM, negative staining with uranyl acetate, 120 kV; for morphology by TEM (in words): aqueous solution or hydrogel, negative staining
Method: We used the negative staining technique to observe the morphologies formed by peptides. A micropipette was used to load 10 μL of sample solution to a carbon-coated copper grid, and we used a piece of filter paper to remove the excess solution. After rinsing the grid with the deionized water, we used uranyl acetate to stain the sample for 1 minute and then rinsed the grid with deionized water again.

[2] = Peptide hydrogel formation, vial-inverting method; format: physicochemical; design: key to EXP / GELATION: 0: no hydrogel; 1: hydrogel; conditions: for State: ultrasonication, standing 48 h; for State / GELATION / hydrogel formation (in words): vial-inverting method; for Concentration: concentration at which the state was recorded: lowest of 30, 60, 90, 120 mM that gave a gel, 120 mM for non-gelating peptides; for GELATION: 1 = hydrogel, 0 = no hydrogel; for hydrogel formation (in words): representative hydrogels pH between 7.0 to 7.5
Method: After validating the efficiency of APHC in predicting tetrapeptide hydrogels, we detailed the phase state of 165 synthesized tetrapeptides and the observed assembly behavior in an aqueous solution.
This work defines hydrogel formation as a self-supporting, non-flowing mixture of water and hydrogelator by the vial-inverting method. All purified tetrapeptides were dissolved in ultrapure water (to form a 30 mM solution initially), followed by the stepwise addition of 1 N NaOH solution to adjust the overall aqueous pH to 6.5–8.5. Meanwhile, a short-term ultrasonication treatment was applied after each pH adjustment to facilitate peptide solubilization and speed up peptide self-assembly. […] The mixture was allowed to stand in for another 48 h for complete hydrogelation. Upon the absence of gelation phenomenon during the aforementioned loops, we increased the peptide concentration (60 mM, 90 mM, and 120 mM were selected) and re-started such gelation operation loop to explore their gelation feasibility.

[3] = 120 mM peptide (highest tested) in ultrapure water, pH 6.5-8.5 (1 N NaOH), precipitate, sol, suspension = no gel
[4] = 30 mM peptide in ultrapure water, pH adjusted to 6.5-8.5 with 1 N NaOH, concentration raised 30/60/90/120 mM until gelation
[5] = 60 mM peptide in ultrapure water, pH 6.5-8.5 (1 N NaOH), no gel at 30 mM

## CC(C)C[C@H](NC(=O)[C@H](C)NC(=O)[C@@H](N)CC(C)C)C(=O)N[C@@H](CCCNC(=N)N)C(=O)O [LALR] (H-LALR-OH)
[1]; line of the table gives 120 mM
  Morphology: aggregates
[2]; [3]
  State: suspension
[2]
  Concentration: 120 mM
[2]; peptide concentration 120 mM
  GELATION: 0

## N[C@@H](Cc1c[nH]c2ccccc12)C(=O)N[C@@H](Cc1c[nH]c2ccccc12)C(=O)N[C@@H](CS)C(=O)N1CCC[C@H]1C(=O)O [WWCP] (H-WWCP-OH)
[1]; line of the table gives 120 mM
  Morphology: aggregates
[2]; [3]
  State: precipitate
[2]
  Concentration: 120 mM
  hydrogel formation (in words): cannot
[2]; peptide concentration 120 mM
  GELATION: 0

## CC[C@H](C)[C@H](NC(=O)[C@@H](NC(=O)[C@@H](NC(=O)[C@@H](N)CC(C)C)C(C)C)[C@@H](C)CC)C(=O)O [LVII] (H-LVII-OH)
[1]; line of the table gives 30 mM
  Morphology: sheet
[2]; [4]
  State: gel
[2]
  Concentration: 30 mM
[2]; peptide concentration 30 mM
  GELATION: 1

## CC(C)C[C@H](NC(=O)[C@H](C)NC(=O)[C@@H](N)CC(=O)O)C(=O)N[C@H](C(=O)O)C(C)C [DALV] (H-DALV-OH)
[1]; line of the table gives 120 mM
  Morphology: aggregates
[2]; [3]
  State: suspension
[2]
  Concentration: 120 mM
[2]; peptide concentration 120 mM
  GELATION: 0

## CC(C)C[C@H](N)C(=O)N[C@H](C(=O)N[C@@H](Cc1c[nH]cn1)C(=O)N[C@@H](Cc1ccccc1)C(=O)O)C(C)C [LVHF] (H-LVHF-OH)
[1]; line of the table gives 30 mM
  Morphology: hybrid(sphere+fibre)
[2]; [4]
  State: gel
[2]
  Concentration: 30 mM
[2]; peptide concentration 30 mM
  GELATION: 1

## CC(C)[C@H](NC(=O)[C@H](Cc1c[nH]c2ccccc12)NC(=O)[C@@H](N)CCCNC(=N)N)C(=O)N[C@@H](Cc1ccccc1)C(=O)O [RWVF] (H-RWVF-OH)
[1]; line of the table gives 120 mM
  Morphology: aggregates
[1]
  morphology by TEM (in words): aggregates with different sizes
[2]; [3]
  State: sol
[2]
  Concentration: 120 mM
[2]; peptide concentration 120 mM
  GELATION: 0

## C[C@H](NC(=O)[C@@H](N)Cc1ccc(O)cc1)C(=O)N[C@@H](Cc1ccc(O)cc1)C(=O)N[C@@H](Cc1ccc(O)cc1)C(=O)O [YAYY] (H-YAYY-OH)
[1]; line of the table gives 120 mM
  Morphology: aggregates
[2]; [3]
  State: sol
[2]
  Concentration: 120 mM
[2]; peptide concentration 120 mM
  GELATION: 0

## C[C@H](NC(=O)[C@@H](N)CS)C(=O)N[C@@H](Cc1ccc(O)cc1)C(=O)N[C@@H](Cc1c[nH]c2ccccc12)C(=O)O [CAYW] (H-CAYW-OH)
[1]; line of the table gives 120 mM
  Morphology: aggregates
[2]; [3]
  State: precipitate
[2]
  Concentration: 120 mM
[2]; peptide concentration 120 mM
  GELATION: 0

## CC(C)[C@H](NC(=O)CN)C(=O)N[C@@H](Cc1ccccc1)C(=O)N[C@@H](Cc1ccc(O)cc1)C(=O)O [GVFY] (H-GVFY-OH)
[1]; line of the table gives 30 mM
  Morphology: fibre
[2]; [4]
  State: gel
[2]
  Concentration: 30 mM
[2]; peptide concentration 30 mM
  GELATION: 1

## CC(C)C[C@H](NC(=O)[C@@H](NC(=O)[C@@H](N)CC(C)C)[C@@H](C)O)C(=O)N[C@@H](Cc1ccccc1)C(=O)O [LTLF] (H-LTLF-OH)
[1]; line of the table gives 30 mM
  Morphology: sheet
[2]; [4]
  State: gel
[2]
  Concentration: 30 mM
[2]; peptide concentration 30 mM
  GELATION: 1

## CC[C@H](C)[C@H](NC(=O)[C@H](CC(C)C)NC(=O)[C@@H](NC(=O)[C@@H](N)CC(C)C)[C@@H](C)O)C(=O)O [LTLI] (H-LTLI-OH)
[1]; line of the table gives 30 mM
  Morphology: sheet
[2]; [4]
  State: gel
[2]
  Concentration: 30 mM
[2]; peptide concentration 30 mM
  GELATION: 1

## CC(C)C[C@H](NC(=O)[C@H](CO)NC(=O)[C@H](CC(C)C)NC(=O)[C@@H](N)CC(C)C)C(=O)O [LLSL] (H-LLSL-OH)
[1]; line of the table gives 60 mM
  Morphology: sheet
[2]; [5]
  State: gel
[2]
  Concentration: 60 mM
[2]; peptide concentration 60 mM
  GELATION: 1

## CC(C)[C@H](NC(=O)[C@@H](NC(=O)[C@H](C)NC(=O)[C@@H](N)Cc1c[nH]c2ccccc12)C(C)C)C(=O)O [WAVV] (H-WAVV-OH)
[1]; line of the table gives 60 mM
  Morphology: fibre
[2]; [5]
  State: gel
[2]
  Concentration: 60 mM
[2]; peptide concentration 60 mM
  GELATION: 1

## N[C@@H](Cc1c[nH]c2ccccc12)C(=O)N[C@@H](Cc1ccc(O)cc1)C(=O)N[C@@H](Cc1ccccc1)C(=O)N[C@@H](Cc1ccccc1)C(=O)O [WYFF] (H-WYFF-OH)
[1]; line of the table gives 30 mM
  Morphology: fibre
[2]; [4]
  State: gel
[2]
  Concentration: 30 mM
[2]; peptide concentration 30 mM
  GELATION: 1

## CC[C@H](C)[C@H](NC(=O)[C@@H](NC(=O)[C@H](C)N)C(C)C)C(=O)N[C@@H](CCC(N)=O)C(=O)O [AVIQ] (H-AVIQ-OH)
[1]; line of the table gives 120 mM
  Morphology: aggregates
[2]; [3]
  State: suspension
[2]
  Concentration: 120 mM
[2]; peptide concentration 120 mM
  GELATION: 0

## CC(C)[C@H](NC(=O)[C@@H](N)CC(=O)O)C(=O)N[C@@H](Cc1ccccc1)C(=O)N[C@@H](Cc1c[nH]c2ccccc12)C(=O)O [DVFW] (H-DVFW-OH)
[1]; line of the table gives 30 mM
  Morphology: fibre
[2]; [4]
  State: gel
[2]
  Concentration: 30 mM
[2]; peptide concentration 30 mM
  GELATION: 1

## O=C(O)[C@@H]1CCCN1C(=O)[C@@H]1CCCN1C(=O)[C@@H]1CCCN1C(=O)[C@@H]1CCCN1 [PPPP] (H-PPPP-OH)
[1]; line of the table gives 120 mM
  Morphology: particle
[2]; [3]
  State: suspension
[2]
  Concentration: 120 mM
[2]; peptide concentration 120 mM
  GELATION: 0

## CC[C@H](C)[C@H](NC(=O)[C@H](Cc1ccc(O)cc1)NC(=O)[C@@H]1CCCN1C(=O)[C@@H](N)Cc1ccc(O)cc1)C(=O)O [YPYI] (H-YPYI-OH)
[1]; line of the table gives 120 mM
  Morphology: aggregates
[2]; [3]
  State: sol
[2]
  Concentration: 120 mM
[2]; peptide concentration 120 mM
  GELATION: 0

## CC(C)C[C@H](NC(=O)[C@@H](N)C(C)C)C(=O)N[C@H](C(=O)N[C@H](C(=O)O)C(C)C)C(C)C [VLVV] (H-VLVV-OH)
[1]; line of the table gives 120 mM
  Morphology: sheet
[2]; [3]
  State: gel
[2]
  Concentration: 120 mM
[2]; peptide concentration 120 mM
  GELATION: 1

## CC[C@H](C)[C@H](N)C(=O)N[C@@H](CCC(N)=O)C(=O)N[C@H](C(=O)N[C@H](C(=O)O)[C@@H](C)CC)[C@@H](C)CC [IQII] (H-IQII-OH)
[1]; line of the table gives 60 mM
  Morphology: hybrid(sphere+fibre)
[2]; [5]
  State: gel
[2]
  Concentration: 60 mM
[2]; peptide concentration 60 mM
  GELATION: 1

## N[C@@H](Cc1c[nH]c2ccccc12)C(=O)N1CCC[C@H]1C(=O)N[C@@H](Cc1ccc(O)cc1)C(=O)N[C@@H](Cc1ccc(O)cc1)C(=O)O [WPYY] (H-WPYY-OH)
[1]; line of the table gives 120 mM
  Morphology: sphere
[2]; [3]
  State: precipitate
[2]
  Concentration: 120 mM
  hydrogel formation (in words): cannot
[2]; peptide concentration 120 mM
  GELATION: 0

## CC[C@H](C)[C@H](NC(=O)[C@H](Cc1ccccc1)NC(=O)[C@H](Cc1c[nH]c2ccccc12)NC(=O)[C@@H](N)CC(C)C)C(=O)O [LWFI] (H-LWFI-OH)
[1]; line of the table gives 120 mM
  Morphology: aggregates
[2]; [3]
  State: sol
[2]
  Concentration: 120 mM
[2]; peptide concentration 120 mM
  GELATION: 0

## C[C@H](NC(=O)[C@@H](N)CO)C(=O)N[C@@H](Cc1c[nH]c2ccccc12)C(=O)N[C@@H](Cc1ccccc1)C(=O)O [SAWF] (H-SAWF-OH)
[1]; line of the table gives 60 mM
  Morphology: fibre
[2]; [5]
  State: gel
[2]
  Concentration: 60 mM
[2]; peptide concentration 60 mM
  GELATION: 1

## CC[C@H](C)[C@H](NC(=O)[C@H](Cc1ccccc1)NC(=O)[C@@H](NC(=O)[C@@H](N)Cc1c[nH]c2ccccc12)C(C)C)C(=O)O [WVFI] (H-WVFI-OH)
[1]; line of the table gives 120 mM
  Morphology: aggregates
[2]; [3]
  State: suspension
[2]
  Concentration: 120 mM
[2]; peptide concentration 120 mM
  GELATION: 0

## CSCC[C@H](N)C(=O)N[C@H](C(=O)N[C@@H](Cc1ccccc1)C(=O)N1CCC[C@H]1C(=O)O)C(C)C [MVFP] (H-MVFP-OH)
[1]; line of the table gives 60 mM
  Morphology: fibre
[2]; [5]
  State: gel
[2]
  Concentration: 60 mM
[2]; peptide concentration 60 mM
  GELATION: 1

## N[C@@H](Cc1c[nH]c2ccccc12)C(=O)N[C@@H](CCC(=O)O)C(=O)N[C@@H](Cc1ccccc1)C(=O)N[C@@H](Cc1ccccc1)C(=O)O [WEFF] (H-WEFF-OH)
[1]; line of the table gives 30 mM
  Morphology: fibre
[1]
  morphology by TEM (in words): entangled nanofibers
[2]; [4]
  State: gel
[2]
  Concentration: 30 mM
  hydrogel formation (in words): hydrogels
[2]; peptide concentration 30 mM
  GELATION: 1

## CC(C)[C@H](N)C(=O)N[C@@H](C)C(=O)N[C@@H](Cc1ccccc1)C(=O)N[C@@H](Cc1ccc(O)cc1)C(=O)O [VAFY] (H-VAFY-OH)
[1]; line of the table gives 120 mM
  Morphology: sphere
[2]; [3]
  State: gel
[2]
  Concentration: 120 mM
[2]; peptide concentration 120 mM
  GELATION: 1

## N[C@@H](Cc1c[nH]c2ccccc12)C(=O)N[C@@H](Cc1ccccc1)C(=O)N[C@@H](Cc1c[nH]cn1)C(=O)N1CCC[C@H]1C(=O)O [WFHP] (H-WFHP-OH)
[1]; line of the table gives 120 mM
  Morphology: aggregates
[2]; [3]
  State: sol
[2]
  Concentration: 120 mM
[2]; peptide concentration 120 mM
  GELATION: 0

## CC(C)C[C@H](N)C(=O)N[C@H](C(=O)N1CCC[C@H]1C(=O)N[C@@H](Cc1ccccc1)C(=O)O)C(C)C [LVPF] (H-LVPF-OH)
[1]; line of the table gives 120 mM
  Morphology: aggregates
[2]; [3]
  State: sol
[2]
  Concentration: 120 mM
[2]; peptide concentration 120 mM
  GELATION: 0

## CC(C)C[C@H](N)C(=O)N[C@@H](Cc1c[nH]c2ccccc12)C(=O)N[C@@H](Cc1ccccc1)C(=O)N[C@@H](Cc1ccccc1)C(=O)O [LWFF] (H-LWFF-OH)
[1]; line of the table gives 30 mM
  Morphology: hybrid(sheet+fibre)
[2]; [4]
  State: gel
[2]
  Concentration: 30 mM
[2]; peptide concentration 30 mM
  GELATION: 1
